According to US20100249083A1, “16,17-CARBOCYCLIC CONDENSED STEROID COMPOUNDS HAVING SELECTIVE ESTROGENIC ACTIVITY” (N.V. Organon, priority 2000, published 2010):

Legend:
[1] = tested on: ovariectomised (OVX) rats; test: Test for prevention of ovariectomy-induced bone loss in rats (anti-osteoporosis test); format: in vivo, rat; conditions: oral, 4 weeks, trabecular bone mineral density difference 40-60%
Source text: Ovariectomy of rats induces bone loss, which is due to estrogen deficiency. Administration of estrogenic compounds prevents this effect. The test is used to evaluate a compound for anti-osteoporotic activity in ovariectomised (OVX) rats. The effect on bone mass can be evaluated by peripheral Quantitative Computed Tomography (pQCT), or by quantitative analysis of X-ray pictures. Plasma osteocalcin and urinary deoxypyridinoline, calcium and phosphate gives information on bone metabolism. Increase of uterine weight and decrease of body and thymus weight reflect estrogenic effect.
Mature virgin 225-250 g female Wistar rats. Strain: Hsd/Cpd:Wu, SPF-bred by Harlan, CPB, Zeist, The Netherlands.
On day 1 of the experiment the rats are weighed and distributed over the cages in order of bodyweight, whereby the rat with the smallest bodyweight is placed in the first cage and the heaviest rat in the final cage. Treatments are randomised over the rats.
Sham-operation and ovariectomy are performed under ether anaesthesia. After recovery from the anaesthesia, within 24 h, vehicle, reference compound or test compound is administered once or twice daily for 4 weeks. […] Trabecular bone mineral density of the metaphyseal part of the femur (FBMDDIS mg/cm^3) is measured with a pQCT (peripheral Quantitative Computed Tomography machine; XCT 960A, Stratec, Birkenfeld, Germany). […]

[2] = Allen Doisy test for estrogenic activity in vivo
Method: In vivo estrogenic activity was determined by means of the Allen Doisy test, described in F. Allen, L. A. Doisy, J. Amer. Med. Assoc., 81, 819-821 (1923)

[3] = target: T1, human estrogen receptor α (hERα) (Homo sapiens, UniProt P03372); conditions: compared with (17β)-estradiol; first value of Erα/Erβ pair
T1 sequence (P03372 1-595): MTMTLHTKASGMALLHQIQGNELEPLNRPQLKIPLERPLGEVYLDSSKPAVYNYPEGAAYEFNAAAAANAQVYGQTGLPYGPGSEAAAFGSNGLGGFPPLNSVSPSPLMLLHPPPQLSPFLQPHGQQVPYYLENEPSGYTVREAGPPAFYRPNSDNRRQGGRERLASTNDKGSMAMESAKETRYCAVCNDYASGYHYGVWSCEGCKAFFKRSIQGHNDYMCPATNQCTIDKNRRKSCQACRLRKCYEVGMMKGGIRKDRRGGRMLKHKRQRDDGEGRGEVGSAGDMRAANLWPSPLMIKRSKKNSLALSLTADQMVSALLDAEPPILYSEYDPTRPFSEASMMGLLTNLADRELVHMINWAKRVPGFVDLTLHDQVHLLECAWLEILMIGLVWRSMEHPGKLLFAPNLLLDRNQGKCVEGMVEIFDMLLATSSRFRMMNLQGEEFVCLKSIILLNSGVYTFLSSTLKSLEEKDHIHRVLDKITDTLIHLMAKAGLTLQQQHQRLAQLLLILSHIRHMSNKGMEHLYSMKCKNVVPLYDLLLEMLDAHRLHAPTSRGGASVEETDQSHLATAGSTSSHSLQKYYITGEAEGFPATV
Method: (§2) Compounds are tested for their estrogen receptor activity in a binding assay and in a transactivation assay using the human estrogen receptor α or β.
(§3) Competitive binding to cytoplasmic human estrogen receptor α or β from recombinant Chinese hamster ovary (CHO) cells is used to estimate the relative binding affinity (═RBA) potency ratio) of a test compound as compared with (17β)-estradiol (E2) for estrogen receptors α or β present in the cytosol of recombinant CHO cells, stably transfected with the human estrogen receptor α (hERα) or β receptor (hERβ).

[4] = target: T2, human estrogen receptor β (hERβ) (Homo sapiens, UniProt Q92731); conditions: compared with (17β)-estradiol; second value of Erα/Erβ pair
Method: as §2, §3

[5] = target: T2, human estrogen receptor β (hERβ); test: Estrogenic agonistic transactivation assay, CHO cells with rat oxytocin promoter and luciferase reporter; format: cell-based; parameters: expressed in transfected cells; host or cells: CHO cells with rat oxytocin promoter and luciferase reporter; conditions: compared with estradiol; second value of Erα/Erβ pair
Source text: (§1) The estrogenic agonistic transactivation (potency ratio) of a test compound to stimulate the transactivation of the enzyme luciferase mediated via the estrogen receptors hERα or hERβ is compared with the standard estrogen estradiol. The antiestrogenic activity (potency ratio) of a test compound to inhibit the transactivation of the enzyme luciferase mediated via the estrogen receptors hERα or hERβ by the (17β)-estradiol is compared with the standard ICI 164.384 (=(7α,17β)-N-butyl-3,17-dihydroxy-N-methylestra-1,3,5(10)-triene-7-undecanamide).

[6] = target: T1, human estrogen receptor α (hERα); test: as above; format: cell-based; parameters: expressed in transfected cells; host or cells: CHO cells with rat oxytocin promoter and luciferase reporter; conditions: compared with estradiol; first value of Erα/Erβ pair
Source text: as §1

T2 sequence (Q92731 whole entry): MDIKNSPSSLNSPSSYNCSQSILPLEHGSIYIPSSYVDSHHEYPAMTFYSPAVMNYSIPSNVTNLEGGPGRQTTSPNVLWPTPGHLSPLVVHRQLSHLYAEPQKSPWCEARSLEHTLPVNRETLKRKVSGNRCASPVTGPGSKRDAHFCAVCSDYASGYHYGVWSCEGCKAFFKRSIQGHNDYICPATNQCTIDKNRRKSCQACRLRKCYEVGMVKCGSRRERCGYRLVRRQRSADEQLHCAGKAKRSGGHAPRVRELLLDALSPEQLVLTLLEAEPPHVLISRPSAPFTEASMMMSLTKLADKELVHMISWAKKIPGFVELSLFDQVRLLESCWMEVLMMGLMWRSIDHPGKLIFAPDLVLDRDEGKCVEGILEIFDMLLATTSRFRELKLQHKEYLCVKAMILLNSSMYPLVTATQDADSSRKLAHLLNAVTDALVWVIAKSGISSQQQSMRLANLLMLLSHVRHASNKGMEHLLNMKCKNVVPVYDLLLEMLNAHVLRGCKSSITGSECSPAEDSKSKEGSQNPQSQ

Binding-assay Erα (relative binding affinity, potency ratio) [3] | Binding-assay Erβ (relative binding affinity, potency ratio) [4] | Transactivation Erβ (agonist potency ratio) [5] | Transactivation Erα (agonist potency ratio) [6] | Compound | Osteoporosis test, minimal active dose (MAD) [1] [mg/kg] | Allen Doisy test, active dose ([2]; oral) [mg/kg] | Allen Doisy test, active dose ([2]; sc) [mg/kg]
 |  |  |  | CCC[C@@H]1Cc2cc(O)ccc2C2CC[C@@]3(C)C(C[C@H]4CC[C@H](O)C[C@]43O)C21 (stereo partly drawn) [E, (7α,16β,17 α,22S)-7-propyl-16,24-cyclo-19,21-dinorchola-1,3,5(10)-triene-3,17,22-triol] | 0.03 | 0.03 | 0.005
15 | 7 | < 0.1 | 0.3 | CCCC1Cc2cc(O)ccc2C2CCC3(C)C(CC4CCCCC43O)C12 (stereo not drawn) [(7α,16β,17α)-7-propyl-16,24-cyclo-19,21-dinorchola-1,3,5(10)-triene-3,17-diol] | 0.19 | 0.125 | 0.024
